Test results: ChEMBL document CHEMBL1139699, “Solid-phase synthesis and antibacterial activity of hydroxycinnamic acid amides and analogues against methicillin-resistant Staphylococcus aureus and vancomycin-resistant S. aureus” (Bioorg Med Chem Lett, 2006)
Values after ≈ are worked out from the molar mass of the structure shown. Active and inactive are the calls of the source. The rule behind the calls is not given here.

How the values were obtained:
Staphylococcus aureus [1] = test: Antibacterial activity against vancomycin-resistant Staphylococcus aureus 20622 at 256 ug/ml; format: functional, organism-based
Staphylococcus aureus [2] = test: Antibacterial activity against vancomycin-resistant Staphylococcus aureus 20623 at 256 ug/ml; format: functional, organism-based
Staphylococcus aureus [3] = test: Antibacterial activity against vancomycin-resistant Staphylococcus aureus 20624 at 256 ug/ml; format: functional, organism-based
Staphylococcus aureus [4] = test: Antibacterial activity against vancomycin-resistant Staphylococcus aureus 21083 at 256 ug/ml; format: functional, organism-based
Staphylococcus aureus [5] = test: Antibacterial activity against methicillin-resistant Staphylococcus aureus at 256 ug/ml; format: functional, organism-based
Staphylococcus aureus [6] = test: Antibacterial activity against methicillin-resistant Staphylococcus aureus 20628 at 256 ug/ml; format: functional, organism-based
Staphylococcus aureus [7] = test: Antibacterial activity against methicillin-resistant Staphylococcus aureus 20630 at 256 ug/ml; format: functional, organism-based
Staphylococcus aureus [8] = test: Antibacterial activity against methicillin-resistant Staphylococcus aureus 20631 at 256 ug/ml; format: functional, organism-based
Staphylococcus aureus [9] = test: Antibacterial activity against methicillin-resistant Staphylococcus aureus 20632 at 256 ug/ml; format: functional, organism-based
Staphylococcus aureus [10] = test: Antibacterial activity against methicillin-resistant Staphylococcus aureus 20633 at 256 ug/ml; format: functional, organism-based
Staphylococcus aureus [11] = test: Antibacterial activity against methicillin-resistant Staphylococcus aureus 20635 at 256 ug/ml; format: functional, organism-based
Staphylococcus aureus [12] = test: Antibacterial activity against methicillin-resistant Staphylococcus aureus 20636 at 256 ug/ml; format: functional, organism-based
Staphylococcus aureus [13] = test: Antibacterial activity against methicillin-resistant Staphylococcus aureus 20652 at 256 ug/ml; format: functional, organism-based
Staphylococcus aureus [14] = test: Antibacterial activity against methicillin-resistant Staphylococcus aureus 20653 at 256 ug/ml; format: functional, organism-based
Staphylococcus aureus [15] = test: Antibacterial activity against methicillin-resistant Staphylococcus aureus 20654 at 256 ug/ml; format: functional, organism-based
Staphylococcus aureus [16] = test: Antibacterial activity against vancomycin-resistant Staphylococcus aureus 20623; format: functional
Staphylococcus aureus [17] = test: Antibacterial activity against vancomycin-resistant Staphylococcus aureus 20624; format: functional
Staphylococcus aureus [18] = test: Antibacterial activity against vancomycin-resistant Staphylococcus aureus 21083; format: functional
Staphylococcus aureus [19] = test: Antibacterial activity against methicillin-resistant Staphylococcus aureus 20652 at 50 ug/ml; format: functional, organism-based
[20] = Cytotoxicity against human gingival cells; format: cell-based
Staphylococcus aureus [21] = test: Antibacterial activity against methicillin-resistant Staphylococcus aureus; format: functional
Staphylococcus aureus [22] = test: Antibacterial activity against methicillin-resistant Staphylococcus aureus 20628; format: functional
Staphylococcus aureus [23] = test: Antibacterial activity against methicillin-resistant Staphylococcus aureus 20630; format: functional
Staphylococcus aureus [24] = test: Antibacterial activity against methicillin-resistant Staphylococcus aureus 20631; format: functional
Staphylococcus aureus [25] = test: Antibacterial activity against methicillin-resistant Staphylococcus aureus 20632; format: functional
Staphylococcus aureus [26] = test: Antibacterial activity against methicillin-resistant Staphylococcus aureus 20633; format: functional
Staphylococcus aureus [27] = test: Antibacterial activity against methicillin-resistant Staphylococcus aureus 20635; format: functional
Staphylococcus aureus [28] = test: Antibacterial activity against methicillin-resistant Staphylococcus aureus 20636; format: functional
Staphylococcus aureus [29] = test: Antibacterial activity against methicillin-resistant Staphylococcus aureus 20653; format: functional
Staphylococcus aureus [30] = test: Antibacterial activity against methicillin-resistant Staphylococcus aureus 20654; format: functional
Staphylococcus aureus [31] = test: Antibacterial activity against vancomycin-resistant Staphylococcus aureus 20622; format: functional
Staphylococcus aureus [32] = test: microbe, parasite or virus in culture; settings: 20652
Staphylococcus aureus [33] = test: Antibacterial activity against methicillin-resistant Staphylococcus aureus 20652 at 100 ug/ml; format: functional, organism-based
Staphylococcus aureus [34] = test: Antibacterial activity against methicillin-resistant Staphylococcus aureus 20628 at 25 ug/ml; format: functional, organism-based
Staphylococcus aureus [35] = test: Antibacterial activity against methicillin-resistant Staphylococcus aureus 20633 at 25 ug/ml; format: functional, organism-based
Staphylococcus aureus [36] = test: Antibacterial activity against methicillin-resistant Staphylococcus aureus 20636 at 25 ug/ml; format: functional, organism-based
Staphylococcus aureus [37] = test: Antibacterial activity against methicillin-resistant Staphylococcus aureus 20652 at 25 ug/ml; format: functional, organism-based
Staphylococcus aureus [38] = test: Antibacterial activity against methicillin-resistant Staphylococcus aureus 20653 at 25 ug/ml; format: functional, organism-based
Staphylococcus aureus [39] = test: Antibacterial activity against methicillin-resistant Staphylococcus aureus 20654 at 25 ug/ml; format: functional, organism-based

| Structure (SMILES) | Activity (Staphylococcus aureus [1]) | Activity (Staphylococcus aureus [2]) | Activity (Staphylococcus aureus [3]) | Activity (Staphylococcus aureus [4]) | MIC (Staphylococcus aureus [16]) | MIC (Staphylococcus aureus [17]) | MIC (Staphylococcus aureus [18]) | Activity (Staphylococcus aureus [19]) | IC50 [20] | MIC (Staphylococcus aureus [21]) | MIC (Staphylococcus aureus [22]) | MIC (Staphylococcus aureus [23]) | MIC (Staphylococcus aureus [24]) | MIC (Staphylococcus aureus [25]) | MIC (Staphylococcus aureus [26]) | MIC (Staphylococcus aureus [27]) | MIC (Staphylococcus aureus [28]) | MIC (Staphylococcus aureus [29]) | MIC (Staphylococcus aureus [30]) | MIC (Staphylococcus aureus [31]) | further results |
| --- | --- | --- | --- | --- | --- | --- | --- | --- | --- | --- | --- | --- | --- | --- | --- | --- | --- | --- | --- | --- | --- |
| Cc1onc(-c2ccccc2)c1C(=O)N[C@@H]1C(=O)N2[C@@H]1SC(C)(C)[C@@H]2C(=O)O | inactive | inactive | inactive | inactive |  |  |  |  |  |  |  |  |  |  |  |  |  |  |  |  | Activity (Staphylococcus aureus [5]): inactive; Activity (Staphylococcus aureus [6]): inactive; Activity (Staphylococcus aureus [7]): inactive; Activity (Staphylococcus aureus [8]): inactive; Activity (Staphylococcus aureus [9]): inactive; Activity (Staphylococcus aureus [10]): inactive; Activity (Staphylococcus aureus [11]): inactive; Activity (Staphylococcus aureus [12]): inactive; Activity (Staphylococcus aureus [13]): inactive; Activity (Staphylococcus aureus [14]): inactive; Activity (Staphylococcus aureus [15]): inactive |
| NCCCNC(=O)CCc1ccc(O)c(O)c1 |  |  |  |  | 50 µg/mL (≈ 210 µM) | 50 µg/mL (≈ 210 µM) | 25 µg/mL (≈ 105 µM) | inactive | > 100 µg/mL | 50 µg/mL (≈ 210 µM) | 50 µg/mL (≈ 210 µM) | 50 µg/mL (≈ 210 µM) | 50 µg/mL (≈ 210 µM) | 50 µg/mL (≈ 210 µM) | 50 µg/mL (≈ 210 µM) | 25 µg/mL (≈ 105 µM) | 25 µg/mL (≈ 105 µM) | 25 µg/mL (≈ 105 µM) | 50 µg/mL (≈ 210 µM) | 100 µg/mL (≈ 420 µM) |  |
| CN[C@H](CC(C)C)C(=O)N[C@H]1C(=O)N[C@@H](CC(N)=O)C(=O)N[C@H]2C(=O)N[C@H]3C(=O)N[C@H](C(=O)N[C@H](C(=O)O)c4cc(O)cc(O)c4-c4cc3ccc4O)[C@H](O)c3ccc(c(Cl)c3)Oc3cc2cc(c3O[C@@H]2O[C@H](CO)[C@@H](O)[C@H](O)[C@H]2O[C@H]2C[C@](C)(N)[C@H](O)[C@H](C)O2)Oc2ccc(cc2Cl)[C@H]1O [VANCOMYCIN] | inactive | inactive | inactive | inactive |  |  |  |  |  |  |  | 1.5 µg/mL (≈ 1.04 µM) | 48 µg/mL (≈ 33.1 µM) | 3 µg/mL (≈ 2.07 µM) |  | 8 µg/mL (≈ 5.52 µM) | 1.5 µg/mL (≈ 1.04 µM) |  | 1.5 µg/mL (≈ 1.04 µM) |  | MIC (Staphylococcus aureus [32]): 0.25 µg/mL (≈ 0.173 µM) |
| NCCCCNC(=O)CCc1ccc(O)c(O)c1 |  |  |  |  | 25 µg/mL (≈ 99.1 µM) | 25 µg/mL (≈ 99.1 µM) | 25 µg/mL (≈ 99.1 µM) | inactive | > 100 µg/mL | 25 µg/mL (≈ 99.1 µM) | 50 µg/mL (≈ 198 µM) | 50 µg/mL (≈ 198 µM) | 25 µg/mL (≈ 99.1 µM) | 25 µg/mL (≈ 99.1 µM) | 25 µg/mL (≈ 99.1 µM) | 12.5 µg/mL (≈ 49.5 µM) | 25 µg/mL (≈ 99.1 µM) | 25 µg/mL (≈ 99.1 µM) | 25 µg/mL (≈ 99.1 µM) | 100 µg/mL (≈ 396 µM) |  |
| NCCCCCCNC(=O)/C=C/c1ccc(O)c(O)c1 |  |  |  |  | 50 µg/mL (≈ 180 µM) | 50 µg/mL (≈ 180 µM) | 25 µg/mL (≈ 89.8 µM) |  | > 100 µg/mL | 100 µg/mL (≈ 359 µM) | 50 µg/mL (≈ 180 µM) | 50 µg/mL (≈ 180 µM) | 50 µg/mL (≈ 180 µM) | 50 µg/mL (≈ 180 µM) | 50 µg/mL (≈ 180 µM) | 25 µg/mL (≈ 89.8 µM) | 50 µg/mL (≈ 180 µM) | 25 µg/mL (≈ 89.8 µM) | 25 µg/mL (≈ 89.8 µM) | 100 µg/mL (≈ 359 µM) | Activity (Staphylococcus aureus [33]): inactive |
| NCCCCCNC(=O)CCc1ccc(O)c(O)c1 |  |  |  |  | 25 µg/mL (≈ 93.9 µM) | 50 µg/mL (≈ 188 µM) | 25 µg/mL (≈ 93.9 µM) |  | > 100 µg/mL | 50 µg/mL (≈ 188 µM) |  | 50 µg/mL (≈ 188 µM) | 50 µg/mL (≈ 188 µM) | 50 µg/mL (≈ 188 µM) |  | 25 µg/mL (≈ 93.9 µM) |  |  |  | 50 µg/mL (≈ 188 µM) | Activity (Staphylococcus aureus [34]): inactive; Activity (Staphylococcus aureus [35]): inactive; Activity (Staphylococcus aureus [36]): inactive; Activity (Staphylococcus aureus [37]): inactive; Activity (Staphylococcus aureus [38]): inactive; Activity (Staphylococcus aureus [39]): inactive |
